The values that follow come from patent US6562843B1, “Substituted 3-pyridyl-4-arylpyrroles, and related therapeutic and prophylactic methods” (Ortho-McNeil Pharmaceutical, Inc., priority 1999, dated 2003).

The subject of one experiment is TNF-α production. Briefly: In-Vitro Whole Cell Assay for TNF-α Inhibition (LPS-stimulated PBMC, ELISA). The experiment is classed as cell-based. Conditions: LPS overnight, TNF-α by ELISA. The protocol: B. In-Vitro Whole Cell Assay for TNF-α Inhibition
Freshly obtained venous blood was anticoagulated with heparin, diluted with an equal volume of phosphate buffered saline (“PBS”) and placed in a sterile tube or other container. Aliquots (30 mL) of this mixture were transferred to centrifuge tubes which were underlaid with Ficoll-Hypaque (15 mL). The prepared tubes were centrifuged at 400×g, without braking, for 30 min at room temperature. Approximately ½ to ⅔ of the platelet layer above the mononuclear cell band was removed with a pipette. The majority of the mononuclear cell layer was carefully removed using a pipette and these PBMC's were diluted with PBS and spun at 600×g for 15 min. The resulting PBMC's were washed with another portion of PBS and spun at 400×g for 10 min at room temperature. The recovered pellets were diluted in low endotoxin RPMI/1% FCS culture medium, and gave a cell concentration of 0.5-2.0×10^6 PMBC/mL. A small volume of the suspension was removed for counting on a hemocytometer and the remaining preparation was centrifuged at 200×g for 15 min at room temperature. The recovered pelleted PMBC's were resuspended in RPMI/1% FCS to a concentration of 1.67×10^6/mL.
To run the assay, the PBMC suspension (180 μL) was transferred to duplicate wells of a 96-well flat-bottom microtiter plate and incubated for 1 h at 37° C. A solution of test compound (10 μL: prepared at 20× the desired final concentration) was added to each well and the plate was incubated for 1 h at 37° C. A solution (10 μL) of LPS in RPMI/1% FCS (200 ng/mL) was added and the wells were incubated overnight at 37° C. The supernate (100 μL) was removed from each well and diluted with RPMI/1% FCS (400 μL). The samples were analyzed for TNF-α using a commercial ELISA kit (Genzyme).
The compounds were tested for their ability to inhibit TNF-α production. The IC50 nM results are listed for the indicated compounds.

The test system of experiment [1] is LPS-induced TNF-α production. The experiment in a line: In Vivo Rodent Assay for Inhibition of TNF-α Production (mice). Also on record: species or system Mice (BALB/cJ females). To be noted: oral dosing, LPS 1 mg/kg i.p., serum TNF-α; for TNF-α % Inhibition Mouse / inhibition in vivo at 25 mg/kg: 25 mg/kg; for inhibition in vivo at 10 mg/kg / inhibition in vivo at 25 mg/kg: Mus musculus, 1 h. The protocol:
C. In Vivo Rodent Assay for Inhibition of TNF-α Production
Mice (BALB/cJ females, Jackson Laboratories) or rats (Lewis males, Charles River) were fasted for 30 min prior to oral dosing with 5-10 mL/kg of test compound at 5-50 mg/kg. Thirty minutes after dosing, the animals were injected intraperitoneally with LPS at 1 mg/kg and returned to their cages for 1 h. Animals were anesthetized by CO2, exsanguinated by cardiac puncture and whole blood collected (0.1-0.7 mL). The blood was allowed to clot and serum was transferred to a centrifuge tube. This sample was centrifuged, and serum was collected, aliquoted and frozen at −80° C. Samples were tested by commercial ELISA's for TNF-α (Endogen for mouse TNF-α and Biosource for rat TNF-α).

Experiment [2] has as its target T1, purified recombinant p38 (6×His-p38 expressed in E.coli) (Homo sapiens, UniProt Q16539).
T1 construct: 6xHis; made in house; host or cells: E. coli
The experiment in a line: p38 Inhibition In-Vitro Enzyme Assay. Format: biochemical. Conditions: myelin basic protein substrate, 33P-ATP; for inhibition at 10 µM: read-out: % p38 inhib @ 10 μM. On the procedure: A. p38 Inhibition In-Vitro Enzyme Assay
A solution (38 μL) of purified recombinant p38 (6×His-p38 expressed in E.coli), myelin basic protein substrate (determined empirically), and a buffer of pH 7.5 (Hepes:25 mM, MgCl2:10 mM, MnCl2:10 mM) were added to 92 wells of a 96-well round bottom polypropylene plate. The amount of enzyme was determined empirically based on the linear range of the assay and the acceptable signal to noise ratio. The remaining wells were used for control “CTRL”) and background (“BKG”). The CTRL was prepared with the enzyme, substrate buffer and 2% DMSO, and the BKG was prepared with substrate buffer and 2% DMSO.
A solution (12 μL) of the test compound in DMSO was added to the testing wells. […] The ATP/^33P-ATP solution (10 μL containing 50 μM unlabeled ATP and 1 μCi ^33P-ATP) was added to all wells and the completed plates were mixed and incubated at 30° C. for 30 min. Ice-cold 50% TCA/10 mM sodium phosphate (60 μL) was added to each well and the plates were kept on ice for 15 min. The contents of each well were transferred to the wells of a 96-well filterplate (Millipore, MultiScreen-DP) and the filterplate was placed on a vacuum manifold fitted with a waste collection tray. The wells were washed five times with 10% TCA/10 mM sodium phosphate (200 μL) under vacuum. MicroScint-20 scintillant was added, and the plates were sealed using Topseal-S sheets and counted in a Packard TopCount scintillation counter using a ^33P liquid program with color quench correction, where the output is in color quench-corrected cpm. The % inhibition of each test compound as shown in Table 2 was calculated by the following formula: % inhibition=[1−(sample−BKG)/(CTRL−BKG)]×100.
[…] In addition, the IC50 was calculated for some compounds using the Deltagraph 4-parameter curve-fitting program.

Counter-ions that a name gives are not always drawn.

T1 sequence (Q16539 whole entry): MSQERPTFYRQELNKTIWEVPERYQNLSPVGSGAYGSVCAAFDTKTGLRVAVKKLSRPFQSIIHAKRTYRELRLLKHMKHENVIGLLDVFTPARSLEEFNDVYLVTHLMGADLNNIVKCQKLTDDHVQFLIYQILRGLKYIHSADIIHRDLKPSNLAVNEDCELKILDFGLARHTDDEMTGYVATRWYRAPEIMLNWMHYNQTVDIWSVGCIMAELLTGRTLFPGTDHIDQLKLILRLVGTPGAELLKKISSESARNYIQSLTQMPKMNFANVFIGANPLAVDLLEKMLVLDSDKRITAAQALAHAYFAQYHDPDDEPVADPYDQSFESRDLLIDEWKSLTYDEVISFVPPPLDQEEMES

As to `Fc1ccc(-c2c[nH]cc2-c2ccncc2)cc1F` [compound 1], the midpoint of inhibition in the experiment on TNF-α production, the IC50, lay at 20 nM. Moreover, the “TNF-α % Inhibition Mouse” value in experiment [1] is on record as 96%.
Turning to `Cn1cc(-c2ccncc2)c(-c2ccc(F)c(F)c2)c1` [compound 2], inhibition in the experiment with TNF-α production was half-maximal at 30 nM (IC50). Besides, the “% p38 inhib @ 10 μM” value in experiment [2] is 15%.
Regarding `N#Cc1ccc(-n2cc(-c3ccncc3)c(-c3ccc(F)c(F)c3)c2)cc1` [compound 4], the midpoint of inhibition in the experiment on TNF-α production, the IC50, lay at 2 nM. Also, the inhibition at 10 µM in experiment [2] was found to be 21%.
As for `CS(=O)(=O)c1ccc(-n2cc(-c3ccncc3)c(-c3ccc(F)c(F)c3)c2)cc1` [compound 5], the IC50 – broadly, the concentration that inhibits the measured activity by half – in the experiment on TNF-α production is 30 nM.
Still for that read-out and setting: under `Cn1cc(-c2ccncc2)c(-c2cc(F)cc(F)c2)c1` [compound 6] stands 175 nM.
With `Cn1cc(-c2ccncc2)c(-c2ccc(F)c(C(F)(F)F)c2)c1` [compound 7], the IC50 in the experiment on TNF-α production stood at 100 nM. In experiment [1], at 10 mg/kg the inhibition in vivo was 61% and at 25 mg/kg the inhibition in vivo was 79%.
In the case of `Cn1cc(-c2ccncc2)c(-c2cc(F)cc(C(F)(F)F)c2)c1` [compound 8], the 50% inhibitory concentration (IC50) in the experiment on TNF-α production was determined as 1500 nM.
The same measure, in the same setting: the result for `Cn1cc(-c2ccncc2)c(-c2cccc(C(F)(F)F)c2)c1` [compound 9] reads 125 nM; that for `Cn1cc(-c2ccncc2)c(-c2cccc(F)c2)c1` [compound 10], 125 nM.
`Cn1cc(-c2ccncc2)c(-c2cccc([N+](=O)[O-])c2)c1` [compound 11]: in the experiment with TNF-α production, the half-inhibitory concentration (IC50) came out at 100 nM. Further, in experiment [1], the inhibition in vivo (in general, how much of the control response was suppressed) at 10 mg/kg came out at 74% and the inhibition in vivo at 25 mg/kg stood at 94%.
With `Oc1cccc(-c2c[nH]cc2-c2ccncc2)c1` [compound 12, 3-(3-Hydroxyphenyl)-4-(4-pyridyl)pyrrole Hydrobromide], the IC50 in the experiment on TNF-α production was found to be 300 nM.
On the same count and under the same terms, the result for `COc1cccc(-c2c[nH]cc2-c2ccncc2)c1` [compound 13, 3-(3-Methoxyphenyl)-4-(4-pyridyl)pyrrole] reads 55 nM; that for `COc1cccc(-c2cn(-c3ccc([N+](=O)[O-])cc3)cc2-c2ccncc2)c1` [compound 15], 20 nM.
In the experiment on TNF-α production, `COc1cccc(-c2cn(-c3ccc(NC(C)=O)cc3)cc2-c2ccncc2)c1` [compound 16] yielded a half-inhibitory concentration (IC50) of 75 nM. Moreover, the “TNF-α % Inhibition Mouse” value in experiment [1] was determined as 50%.
Taken in the same sequence, the figures for `COc1cccc(-c2cn(-c3ccc(N)cc3)cc2-c2ccncc2)c1` [compound 17] were 95 nM and 66%.
For `COc1cccc(-c2cn(-c3ccc(S(C)(=O)=O)cc3)cc2-c2ccncc2)c1` [compound 19] the same measures were 30 nM and −127%.
`COc1cccc(-c2cn(-c3ccccn3)cc2-c2ccncc2)c1` [compound 20] showed an IC50 in the experiment with TNF-α production of 150 nM.
The same measure, in the same setting: the result for `COc1cccc(-c2cn(-c3ccc([N+](=O)[O-])cc3[N+](=O)[O-])cc2-c2ccncc2)c1` [compound 21] reads 80 nM; that for `COc1cccc(-c2cn(CCCc3ccccc3)cc2-c2ccncc2)c1` [compound 23], 2000 nM; that for `COc1cccc(-c2c[nH]cc2-c2ccncn2)c1` [compound 24], 250 nM.
Turning to `Cn1cc(-c2ccncc2)c(-c2ccsc2)c1` [compound 25], half-maximal inhibition in the experiment with TNF-α production (IC50) required 900 nM.
Same read-out and setting: under `COc1ccc(-c2cn(C)cc2-c2ccncc2)cc1` [compound 26] stands 2000 nM.
The compound `Fc1ccc(-c2c[nH]cc2-c2ccncc2)cc1` [compound 27] yielded a 50% inhibitory concentration (IC50) in the experiment with TNF-α production of 90 nM. In experiment [1], 10 mg/kg produced 73% inhibition in vivo and the inhibition in vivo at 25 mg/kg stood at 100%.
`Cn1cc(-c2ccncc2)c(-c2ccc(F)cc2)c1` [compound 29, 1-Methyl-3-(4-fluorophenyl)-4-(4-pyridyl)pyrrole] gave a 50% inhibitory concentration (IC50) with TNF-α production of 200 nM. Further, the inhibition at 10 µM in experiment [2] amounted to 34%.
For `Nc1ccc(-n2cc(-c3ccc(F)cc3)c(-c3ccncc3)c2CCCc2ccccc2)cc1` [compound 33, 1-(4-Aminophenyl)-4-(4-fluorophenyl)-2-(3-phenylpropyl)-3-(4-pyridyl)pyrrole], the IC50 in the experiment with TNF-α production worked out at 8 nM. In addition, in experiment [2], the inhibition at 10 µM was 51%.
Compound `Cn1cc(-c2ccncc2)c(-c2ccncc2)c1` [compound 34] returned a half-maximal inhibitory concentration (IC50) in the experiment with TNF-α production of 3000 nM.
Regarding `CSc1ccc(-c2cn(C)cc2-c2ccncc2)cc1` [compound 35], the IC50 in the experiment on TNF-α production was determined as 250 nM.
Still for that read-out and setting: under `CN(C)c1ccc(-c2cn(C)cc2-c2ccncc2)cc1` [compound 36] stands 500 nM; under `Cn1cc(-c2ccncc2)c(-c2ccc([S+](C)[O-])cc2)c1` (centres unmarked) [compound 37], 3000 nM.
On to `Cn1cc(-c2ccccc2)c(-c2ccncc2)c1` [compound 38], for which, in the experiment on TNF-α production, the half-maximal inhibitory concentration (IC50) stood at 350 nM.
Turning to `Fc1ccc(-c2cn(CCCN3CCCCC3)c(CCCc3ccccc3)c2-c2ccncc2)cc1` [compound 39], inhibition in the experiment on TNF-α production was half-maximal at 5 nM (IC50). Further, in experiment [1], the inhibition in vivo at 10 mg/kg stood at 36% and the inhibition in vivo at 25 mg/kg was 100%.
In the experiment with TNF-α production, `Fc1ccc(-c2cn(CCN3CCCCC3)c(CCCc3ccccc3)c2-c2ccncc2)cc1` [compound 40] yielded an IC50 of 3 nM. In experiment [1], this compound displayed an inhibition in vivo at 10 mg/kg of 96% and an inhibition in vivo at 25 mg/kg of 96%.
For the compound `CN1CCCC1CCn1cc(-c2ccc(F)cc2)c(-c2ccncc2)c1CCCc1ccccc1` (centres unmarked) [compound 41], the IC50 in the experiment with TNF-α production was 5 nM. Also, in experiment [1], the inhibition in vivo at 10 mg/kg was determined as 100% and 25 mg/kg produced 100% inhibition in vivo.
`CN1CCCC(Cn2cc(-c3ccc(F)cc3)c(-c3ccncc3)c2CCCc2ccccc2)C1` (centres unmarked) [compound 42]: the midpoint of inhibition with TNF-α production, the IC50, lay at 2 nM. In experiment [1], this compound gave an inhibition in vivo at 10 mg/kg of 100% and an inhibition in vivo at 25 mg/kg of 100%.
`Fc1ccc(-c2cn(CCN3CCOCC3)c(CCCc3ccccc3)c2-c2ccncc2)cc1` [compound 43] yielded an IC50 in the experiment with TNF-α production of 1 nM. Further, in experiment [1], the inhibition in vivo at 10 mg/kg is 93% and the inhibition in vivo at 25 mg/kg came out at 93%.
The compound `CN(C)CCCn1cc(-c2ccc(F)cc2)c(-c2ccncc2)c1CCCc1ccccc1` [compound 44] gave an IC50 in the experiment with TNF-α production of 8 nM. For the same compound, in experiment [1], the inhibition in vivo at 10 mg/kg was 100% and the inhibition in vivo at 25 mg/kg is 100%.
For the compound `Fc1ccc(-c2cn(CCN3CCCC3)c(CCCc3ccccc3)c2-c2ccncc2)cc1` [compound 45], in the experiment with TNF-α production, the half-maximal inhibitory concentration (IC50) came out at 3 nM. Further, in experiment [1], at 10 mg/kg the inhibition in vivo was 99% and testing at 25 mg/kg gave an inhibition in vivo of 99%.
Turning to `OCCCc1[nH]cc(-c2ccc(F)cc2)c1-c1ccncc1` [compound 46, 4-(4-Fluorophenyl)-2-(3-hydroxypropyl)-3-(4-pyridyl)pyrrole], in the experiment on TNF-α production, inhibition was half-maximal at 544 nM (IC50).
In the experiment with TNF-α production, `Fc1ccc(-c2c[nH]c(CCCN3CCOCC3)c2-c2ccncc2)cc1` [compound 47, 4-(4-Fluorophenyl)-2-(3-morpholinopropyl)-3-(4-pyridyl)pyrrole] registered an IC50 of 177 nM. For the same compound, the inhibition in vivo at 25 mg/kg in experiment [1] stood at 77%.
